Patent US5541162A, “Glutathione derivatives” (Senju Pharmaceutical Co., Ltd., priority 1990, dated 1996)

Assays:
[1] = system: carrageenin-induced conjunctival edema; assay: Effect on carrageenin-induced conjunctival edema; type: in vivo, rat; conditions: male Wistar rats; for % Inhibition (conjunctival edema): 30 mg/kg i.v., vs physiological saline control; for Conjunctival edema weight (mg ± S.E): test substance 30 mg/5 ml/kg i.v. 1 minute before subconjunctival 1% carrageenin, n=10
Protocol: Method: Male Wistar rats (body weight about 120 g) purchased from Shizuoka Laboratory Animal Center were used as test animals. Each animal was anesthesized with pentobarbital 6 mg/kg i.p. and a solution of the test substance in physiological saline was intravenously administered (30 mg/5 ml/kg). After 1 minute, 50 μl of a 1% solution of carrageenin in physiological saline was injected subconjunctivally. After 3 minutes, the rat was sacrificed and the carrageenin-induced conjunctival edema was weighed.

[2] = system: rat back passive anaphylactic reaction; assay: Effect on rat back passive anaphylactic reaction; type: in vivo; conditions: male Wistar rats; for % Inhibition (passive anaphylactic reaction): 30 mg/kg i.v., vs physiological saline control; for Absorbance (extracted Evans blue dye), mean ± S.E.: 30 mg/kg into caudal vein 1 minute before antigen, dye extracted after 30 minutes, n=5
Protocol: Method: Male Wistar rats (body weight about 130 g) purchased from Shizuoka Laboratory Animal Center were used as test animals. The back hair of each rat was clipped off and the antiserum was injected intradermally at the back. After 3 days, the test substance 30 mg/kg was injected into the caudal vein (control: physiological saline). One minute later, 1 ml of a 50:50 mixture of 1% egg white albumin and 2% Evans blue in physiological saline was intravenously administered as the antigen to induce a passive anaphylactic reaction. After 30 minutes, the rat was sacrificed, the stained area of the rat back was isolated the dye was extracted with 10 ml of formamide to determine the amount of the dye.

[3] = system: acetaminophen-induced liver damage; assay: Effect on acetaminophen-induced liver damage; type: in vivo, rat; conditions: for s-GOT, mean ± S.E. / s-GPT, mean ± S.E. / s-GOT percent inhibition (figure in parentheses) / s-GPT percent inhibition (figure in parentheses): male SD rats; for s-GOT, mean ± S.E. / s-GPT, mean ± S.E.: 0.5 mmole/kg orally 1 hour before acetaminophen 300 mg/kg i.p., serum after 24 hours; for s-GOT percent inhibition (figure in parentheses) / s-GPT percent inhibition (figure in parentheses): vs physiological saline control
Protocol: Method: Male SD rats (body weights about 180 g) purchased from Shizuoka Laboratory Animal Center were used as test animals. The test substance was orally administered (0.5 mmole/kg), and after 1 hour, acetaminophen 300 mg/kg was intraperitoneally administered. After 24 hours, the blood was drawn from the abdominal aorta of each rat and the serum was separated and determined for s-GOT and GPT.

Compound | % Inhibition (conjunctival edema) [1] | Conjunctival edema weight (mg ± S.E) [1] | % Inhibition (passive anaphylactic reaction) [2] | Absorbance (extracted Evans blue dye), mean ± S.E. [2] | s-GOT, mean ± S.E. [3] | s-GPT, mean ± S.E. [3] | s-GOT percent inhibition (figure in parentheses) ([3]; 0.5 mmole/kg orally) | s-GPT percent inhibition (figure in parentheses) ([3]; 0.5 mmole/kg orally) | Efficacy on acetaminophen-induced liver damage (in words) ([3]; 0.5 mmole/kg orally, rats)
CC(C)OC(=O)CNC(=O)[C@H](CSC1CC(=O)NC1=O)NC(=O)CC[C@H](N)C(=O)O (stereo partly drawn) [R1 = C3 H7, R2 R3 = NH, S-[(1,2-Dicarboximido)ethyl]glutathione isopropyl ester] | 21.4% | 62.0 ± 1.6 mg | 26.5% | 0.642 ± 0.141 | – | – | – | – | –
CCN1C(=O)CC(SC[C@H](NC(=O)CC[C@H](N)C(=O)O)C(=O)NCC(=O)O)C1=O (stereo partly drawn) [R1 = H, R2 R3 = N--C2 H5, S-[N-Ethyl-2,5-dioxopyrrolidin-3-yl]glutathione] | 9.9% | 63.9 ± 3.6 mg | 41.1% | 0.514 ± 0.050 | – | – | – | – | –
CC(C)OC(=O)CNC(=O)[C@H](CSC(CC(N)=O)C(N)=O)NC(=O)CC[C@H](N)C(=O)O (stereo partly drawn) [R1 = C3 H7, R2 = R3 = NH2, S-(1,2-Dicarbamoylethyl)glutathioneisopropyl ester] | 26.2% | 58.2 ± 1.4 mg | 43.6% | 0.492 ± 0.083 | 1760 ± 911 | 740 ± 394 | 59.8% | 46.7% | –
S-[1-(or 2)Carboxy-2-(or 1)carbamoylethyl]glutathione | 9.6% | 64.1 ± 4.2 mg | 43.4% | 0.494 ± 0.066 | – | – | – | – | –
N[C@@H](CCC(=O)N[C@@H](CSC1CC(=O)NC1=O)C(=O)NCC(=O)O)C(=O)O (stereo partly drawn) [R1 = H, R2 R3 = NH, S-[(1,2-Dicarboximido)ethyl]glutathione] | 9.9% | 63.9 ± 4.1 mg | 47.4% | 0.459 ± 0.104 | 1288 ± 316 | 351 ± 82 | 54.0% | 50.1% | –
S-(1,2-Dicarboxyethyl)glutathioneisopropyl ester [R1 = C3 H7, R2 = R3 = OH] | 19.0% | 63.9 ± 3.6 mg | 47.7% | 0.457 ± 0.055 | 929 ± 500 | 404 ± 278 | 78.8% | 70.9% | –
CCCCOC(=O)CC(SC[C@H](NC(=O)CC[C@H](N)C(=O)O)C(=O)NCC(=O)OC(C)C)C(=O)OCCCC (stereo partly drawn) [R1 = C3 H7, R2 = R3 = OC4 H9, S-(1,2-Dicarbo-n-butoxyethyl)glutathione isopropyl ester] | 1.9% | 77.4 ± 4.0 mg | 43.6% | 0.492 ± 0.094 | 178 ± 64 | 45 ± 11 | 95.9% | 96.8% | –
CCCCOC(=O)CC(CSC[C@H](NC(=O)CC[C@H](N)C(=O)O)C(=O)NCC(=O)OC(C)C)C(=O)OCCCC (stereo partly drawn) [R1 = C3 H7, R2 = R3 = C4 H9, S-(2,3-Dicarbo-n-butoxypropyl)glutathione isopropyl ester] | – | – | – | – | 309 ± 105 | 86 ± 31 | 88.4% | 70.9% | significant effect
NC(=O)CC(SC[C@H](NC(=O)CC[C@H](N)C(=O)O)C(=O)NCC(=O)O)C(N)=O (stereo partly drawn) [R1 = H, R2 = R3 = NH2, S-(1,2-Dicarbamoylethyl)glutathione] | 5.4% | 67.1 ± 3.8 mg | 35.3% | 0.565 ± 0.162 | 591 ± 155 | 147 ± 48 | 78.9% | 79.1% | –
CCOC(=O)CC(SC[C@H](NC(=O)CC[C@H](N)C(=O)O)C(=O)NCC(=O)OC(C)C)C(=O)OCC (stereo partly drawn) [R1 = C3 H7, R2 = R3 = OC2 H5, γ-L-Glutamyl-[S-(1,2-dicarbethoxyethyl)]-L-cystinylglycine isopropyl ester] | 23.7% | 60.2 ± 1.2 mg | 44.6% | 0.484 ± 0.093 | 394 ± 178 | 111 ± 51 | 91.0% | 92.0% | –
